In patent US9708326B2, “Inhibitors of bruton's tyrosine kinase” (Pharmacyclics LLC, priority 2013, dated 2017):

Experiments:
Type in all cases: biochemical
Conditions in all cases: one of the methods outlined in Example 11a, 11b and 11c
[1] = target: EGFR (Homo sapiens, UniProt P00533); test: Inhibition of a panel of kinases: EGFR in vitro kinase assay
[2] = target: T1, BTK (Homo sapiens, UniProt Q06187); test: Inhibition of a panel of kinases: BTK in vitro kinase assay
T1 construct: N-terminal His6-tagged, recombinant, full-length, human BTK; His6 (N); made in house; host or cells: baculovirus / Sf21 insect cells
T1 sequence (Q06187 whole entry): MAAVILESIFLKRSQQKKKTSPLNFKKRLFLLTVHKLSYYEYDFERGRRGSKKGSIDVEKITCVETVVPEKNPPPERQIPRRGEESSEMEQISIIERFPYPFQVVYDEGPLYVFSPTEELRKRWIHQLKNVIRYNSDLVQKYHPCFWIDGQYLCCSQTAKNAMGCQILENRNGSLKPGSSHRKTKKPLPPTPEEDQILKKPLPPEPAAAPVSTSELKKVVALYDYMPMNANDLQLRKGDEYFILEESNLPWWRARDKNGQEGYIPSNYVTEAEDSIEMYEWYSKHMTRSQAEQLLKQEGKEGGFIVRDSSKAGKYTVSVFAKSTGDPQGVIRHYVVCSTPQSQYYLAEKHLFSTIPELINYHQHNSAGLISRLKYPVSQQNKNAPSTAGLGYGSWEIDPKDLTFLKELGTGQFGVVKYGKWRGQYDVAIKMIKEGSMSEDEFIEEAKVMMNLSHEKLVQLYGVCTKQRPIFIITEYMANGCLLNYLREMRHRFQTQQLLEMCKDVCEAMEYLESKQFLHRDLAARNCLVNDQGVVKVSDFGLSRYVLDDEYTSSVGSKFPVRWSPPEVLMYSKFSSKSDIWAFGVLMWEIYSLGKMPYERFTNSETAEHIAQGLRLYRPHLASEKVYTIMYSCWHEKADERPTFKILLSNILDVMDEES
Protocol: (§1) Btk kinase activity is determined using a time-resolved fluorescence resonance energy transfer (TR-FRET) methodology. Measurements are performed in a reaction volume of 50 μL using 96-well assay plates. Kinase enzyme, inhibitor, ATP (at the Km for the kinase), and 1 μM peptide substrate (Biotin-AVLESEEELYSSARQ-NH2) are incubated in a reaction buffer composed of 20 mM Tris, 50 mM NaCl, MgCl2 (5-25 mM depending on the kinase), MnCl2 (0-10 mM), 1 mM DTT, 0.1 mM EDTA, 0.01% bovine serum albumin, 0.005% Tween-20, and 10% DMSO at pH 7.4 for one hour. The reaction is quenched by the addition of 1.2 equivalents of EDTA (relative to divalent cation) in 25 μL of 1× Lance buffer (Perkin-Elmer). Streptavidin-APC (Perkin-Elmer) and Eu-labeled p-Tyr100 antibody (Perkin-Elmer) in 1× Lance buffer are added in a 25 μL volume to give final concentrations of 100 nM and 2.5 nM, respectively, and the mixture is allowed to incubate for one hour. The TR-FRET signal is measured on a multimode plate reader with an excitation wavelength (λEx) of 330 nm and detection wavelengths (λEm) of 615 and 665 nm. Activity is determined by the ratio of the fluorescence at 665 nm to that at 615 nm. For each compound, enzyme activity is measured at various concentrations of compound. Negative control reactions are performed in the absence of inhibitor in replicates of six, and two no-enzyme controls are used to determine baseline fluorescence levels Inhibition constants, Ki(app), ware obtained using the program BatchKi (Kuzmic et al. (2000), Anal. Biochem. 286:45-50). IC50s are obtained according to the equation: IC50={Ki(app)/(1+[ATP]/Km^ATP)}+[E]total/2;
(§2) For all kinases, [ATP]=Km^ATP, [Btk]total=0.5 nM and [Lck]total=6 nM.
(§3) Kinase activity is measured in vitro using electrophoretic mobility shift assay. The kinase reactions are assembled in a total volume of 25 μL in 384 well plates. The reactions comprise: BTK enzyme (1 nM, N-terminal His6-tagged, recombinant, full-length, human BTK purified from baculovirus Sf21 insect cell system), inhibitor, ATP (16 μM, the apparent Km for the kinase), fluorescently labeled peptide substrate (1 μM, FAM-GEEPLYWSFPAKKK-NH2) in a reaction buffer composed of 100 mM HEPES, pH7.5, 5 mM MgCl2 1 mM DTT, 0.1% bovine serum albumin, 0.01% Triton X-100, and 1% DMSO. The reaction is incubated for one hour and is quenched by the addition of 45 μL of termination buffer (100 mM HEPES, pH7.5, 0.01% Triton X-100, 30 mM EDTA). The terminated reactions are analyzed using 12 channel LabChip® 3000 microfluidic detection instrument (Caliper Life Sciences). The enzymatic phosphorylation of the peptide results in a change in net charge, enabling electrophoretic separation of product from substrate peptide. As substrate and product peptides are separated, two peaks of fluorescence are observed. Change in the relative fluorescence intensity of the substrate and product peaks is the parameter measured, reflecting enzyme activity. In the presence of an inhibitor, the ratio between product and substrate is altered: the signal of the product decreases, while the signal of the substrate increases.
(§4) Activity in each sample is determined as the product to sum ratio (PSR): P/(S+P), where P is the peak height of the product peptide and S is the peak height of the substrate peptide. For each compound, enzyme activity is measured at various concentrations (12 concentrations of compound spaced by 3× dilution intervals). Negative control samples (0%-inhibition in the absence of inhibitor) and positive control samples (100%-inhibition, in the presence of 20 mM EDTA) are assembled in replicates of four and are used to calculate %-inhibition values for each inhibitor at each concentration. Percent inhibition (Pinh) is determined using following equation: […]

[3] = target: LCK (Homo sapiens, UniProt P06239); test: Inhibition of a panel of kinases: LCK in vitro kinase assay
Chain of LCK (P06239 whole entry, species assumed): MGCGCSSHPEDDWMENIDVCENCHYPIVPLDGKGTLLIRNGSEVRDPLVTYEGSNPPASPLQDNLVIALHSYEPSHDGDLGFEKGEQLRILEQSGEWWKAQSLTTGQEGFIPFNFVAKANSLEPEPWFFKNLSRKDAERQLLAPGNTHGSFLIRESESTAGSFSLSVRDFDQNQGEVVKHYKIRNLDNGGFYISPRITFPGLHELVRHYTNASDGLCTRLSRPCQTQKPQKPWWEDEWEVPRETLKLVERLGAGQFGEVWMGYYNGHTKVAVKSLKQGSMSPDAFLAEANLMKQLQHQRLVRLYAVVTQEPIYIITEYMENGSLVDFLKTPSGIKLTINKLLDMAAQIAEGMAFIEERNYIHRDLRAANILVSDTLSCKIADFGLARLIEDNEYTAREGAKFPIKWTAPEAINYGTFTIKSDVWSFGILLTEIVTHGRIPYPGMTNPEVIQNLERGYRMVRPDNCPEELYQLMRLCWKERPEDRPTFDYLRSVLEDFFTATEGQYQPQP
Protocol: as §1, §2, §3, §4

Chain of EGFR (P00533 25-1210, species assumed): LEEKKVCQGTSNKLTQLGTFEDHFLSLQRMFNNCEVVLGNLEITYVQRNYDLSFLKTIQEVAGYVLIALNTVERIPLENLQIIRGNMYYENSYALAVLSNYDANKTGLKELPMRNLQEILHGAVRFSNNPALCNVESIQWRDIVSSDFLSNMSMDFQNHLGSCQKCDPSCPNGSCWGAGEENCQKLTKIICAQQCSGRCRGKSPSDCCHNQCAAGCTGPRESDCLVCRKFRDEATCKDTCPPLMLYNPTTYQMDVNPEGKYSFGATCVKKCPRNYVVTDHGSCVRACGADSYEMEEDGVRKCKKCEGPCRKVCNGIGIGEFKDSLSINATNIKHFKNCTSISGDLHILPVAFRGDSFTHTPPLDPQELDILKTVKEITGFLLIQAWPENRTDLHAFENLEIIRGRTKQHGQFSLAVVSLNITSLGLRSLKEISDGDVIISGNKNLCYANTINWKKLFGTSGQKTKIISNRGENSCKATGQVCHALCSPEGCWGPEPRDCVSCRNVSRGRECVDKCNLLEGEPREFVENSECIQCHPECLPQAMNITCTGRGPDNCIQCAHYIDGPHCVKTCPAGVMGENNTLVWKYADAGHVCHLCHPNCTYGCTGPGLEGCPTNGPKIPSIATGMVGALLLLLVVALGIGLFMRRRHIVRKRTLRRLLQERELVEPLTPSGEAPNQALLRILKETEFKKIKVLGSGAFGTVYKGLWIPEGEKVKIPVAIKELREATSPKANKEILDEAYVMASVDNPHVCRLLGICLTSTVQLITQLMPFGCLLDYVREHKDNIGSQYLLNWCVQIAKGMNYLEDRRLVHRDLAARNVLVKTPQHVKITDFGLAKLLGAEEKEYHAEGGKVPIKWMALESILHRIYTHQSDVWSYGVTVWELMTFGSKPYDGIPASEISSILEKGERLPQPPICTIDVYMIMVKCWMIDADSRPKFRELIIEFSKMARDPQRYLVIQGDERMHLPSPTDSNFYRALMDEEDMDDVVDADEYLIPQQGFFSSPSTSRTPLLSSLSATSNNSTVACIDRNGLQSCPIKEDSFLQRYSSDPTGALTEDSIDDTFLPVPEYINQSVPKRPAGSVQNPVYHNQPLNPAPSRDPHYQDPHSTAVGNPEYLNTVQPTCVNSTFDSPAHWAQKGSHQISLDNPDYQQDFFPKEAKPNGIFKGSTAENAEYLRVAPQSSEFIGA

Row | IC50 [1] [µM] | IC50 [2] [µM] | IC50 [3] [µM] | Compound
1 | > 10 | 0.1 to 1 |  | CN(C)C/C=C/C(=O)N1CC(n2c(=O)[nH]c3cnc(Nc4ccc(F)cc4)nc32)C1 [Compound 23, (E)-9-(1-(4-(dimethylamino)but-2-enoyl)azetidin-3-yl)-2-(4-fluorophenylamino)-7H-purin-8(9H)-one]
2 | 1 to 10 | < 0.1 | > 10 | C=CC(=O)Nc1cccc(-n2c(=O)[nH]c3cnc(Nc4ccc(OCCOC)cc4)nc32)c1 [Compound 43, N-(3-(2-(4-(2-methoxyethoxyl)phenylamino)-8-oxo-7H-purin-9(8H)-yl)phenyl)acrylamide]
3 | 1 to 10 | < 0.1 |  | COCCOc1ccc(Nc2ncc3[nH]c(=O)n(-c4cccc(NC(=O)/C=C/CN(C)C)c4)c3n2)cc1 [Compound 6, (E)-4-(dimethylamino)-N-(3-(2-(4-(2-methoxyethoxyl)phenylamino)-8-oxo-7H-purin-9(8H)-yl)phenyl)but-2-enamide]
4 | > 10 | 0.1 to 1 | 1 to 10 | CN(C)C/C=C/C(=O)N1CCC(n2c(=O)[nH]c3cnc(Nc4ccc(F)cc4)nc32)CC1 [Compound 35, (E)-9-(1-(4-(dimethylamino)but-2-enoyl)piperidin-4-yl)-2-(4-fluorophenylamino)-7H-purin-8(9H)-one]
5 | 1 to 10 | < 0.1 | 1 to 10 | C=CC(=O)N(C)c1cccc(-n2c(=O)[nH]c3cnc(Nc4ccc(OCCOC)cc4)nc32)c1 [Compound 13, N-(3-(2-(4-(2-methoxyethoxyl)phenylamino)-8-oxo-7H-purin-9(8H)-yl)phenyl)-N-methylacrylamide]
6 | 1 to 10 | 0.1 to 1 | 1 to 10 | CN(C)C/C=C/C(=O)N1CCC[C@@H](n2c(=O)[nH]c3cnc(Nc4ccc(F)cc4)nc32)C1 [Compound 29, (R,E)-9-(1-(4-(dimethylamino)but-2-enoyl)piperidin-3-yl)-2-(4-fluorophenylamino)-7H-purin-8(9H)-one]
7 | 1 to 10 | 0.1 to 1 | 1 to 10 | C=CC(=O)Nc1cccc(-c2c[nH]c3cnc(Nc4ccc(OCCOC)cc4)nc23)c1 [Compound 60, N-(3-(2-(4-(2-methoxyethoxyl)phenylamino)-5H-pyrrolo[3,2-d]pyrimidin-7-yl)phenyl)acrylamide]
8 | 1 to 10 | < 0.1 | 0.1 to 1 | C=CC(=O)Nc1cccc(-c2n[nH]c3cnc(Nc4ccc(OCCOC)cc4)nc23)c1 [Compound 54, N-(3-(5-(4-(2-methoxyethoxyl)phenylamino)-1H-pyrazolo[4,3-d]pyrimidin-3-yl)phenyl)acrylamide]
9 | 1 to 10 | < 0.1 | 1 to 10 | CN(C)C/C=C/C(=O)Nc1cccc(-n2c(=O)[nH]c3cnc(Nc4ccc(F)cc4)nc32)c1 [Compound 48, (E)-4-(dimethylamino)-N-(3-(2-(4-fluorophenylamino)-8-oxo-7H-purin-9(8H)-yl)phenyl)but-2-enamide]
10 | 0.1 to 1 | < 0.1 | > 10 | C=CC(=O)Nc1cccc(-n2c(=O)[nH]c3cnc(Nc4ccc(F)cc4)nc32)c1 [Compound 17, N-(3-(2-(4-fluorophenylamino)-8-oxo-7H-purin-9(8H)-yl)phenyl)acrylamide]
